Values joined by “and” are separate entries in the source; they are usually repeats but may differ in a detail not shown here. Equal entries are not always repeated.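 Exposure lasted 48 hours, with cells grown in 96-well plates and compounds tested at five concentrations. GI50 is the concentration that inhibits growth by half. TGI: total growth inhibition.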
Key:
Assay in all cases: NCI-60 cell line screen, 48 h
EKVX NSCLC = system: EKVX NSCLC
HS 578T breast = system: HS 578T breast
K-562 leukemia = system: K-562 leukemia
KM12 colon = system: KM12 colon
MOLT-4 leukemia = system: MOLT-4 leukemia
NCI-H460 lung = system: NCI-H460 lung
OVCAR-3 ovarian = system: OVCAR-3 ovarian
SK-MEL-5 melanoma = system: SK-MEL-5 melanoma
SNB-75 CNS = system: SNB-75 CNS
UO-31 renal = system: UO-31 renal

Structure (SMILES)	GI50 (EKVX NSCLC)	TGI (EKVX NSCLC)	GI50 (HS 578T breast)	TGI (HS 578T breast)	GI50 (K-562 leukemia)	TGI (K-562 leukemia)	GI50 (KM12 colon)	TGI (KM12 colon)	GI50 (MOLT-4 leukemia)	TGI (MOLT-4 leukemia)	GI50 (NCI-H460 lung)	TGI (NCI-H460 lung)	GI50 (OVCAR-3 ovarian)	TGI (OVCAR-3 ovarian)	GI50 (SK-MEL-5 melanoma)	TGI (SK-MEL-5 melanoma)	GI50 (SNB-75 CNS)	TGI (SNB-75 CNS)	GI50 (UO-31 renal)	TGI (UO-31 renal)
Cn1cc(/C=C2\C(=O)Nc3cccnc32)c2ccccc21	11.1 µM	> 25 µM	8.58 µM	> 25 µM	> 18.4 µM	> 25 µM	0.885 µM	> 25 µM	11.5 µM	> 25 µM	16.4 µM	> 25 µM	> 22.5 µM	> 25 µM	9.2 µM	> 25 µM	> 19.6 µM	> 25 µM	4.86 µM	> 25 µM
C/C(=N\n1c(N)c(C#N)c(-c2ccc(Cl)cc2)c(C#N)c1=O)c1cccnc1	> 100 µM	> 100 µM	> 100 µM	> 100 µM	> 100 µM	> 100 µM	> 100 µM	> 100 µM	> 100 µM	> 100 µM	> 100 µM	> 100 µM	> 100 µM	> 100 µM	> 100 µM	> 100 µM	14.6 µM	99.6 µM	> 100 µM	> 100 µM
O=C1CCC(c2ccccc2)(c2ccccc2)CC1	–	> 100 µM	–	> 100 µM	–	> 100 µM	–	> 100 µM	–	> 100 µM	–	> 100 µM	–	> 100 µM	–	> 100 µM	–	> 100 µM	–	> 100 µM
Fc1ccc(-c2c(-c3ccncc3)n(CCN3CCOCC3)c3cccnc23)cc1	–	–	> 25 µM	> 25 µM	> 25 µM	> 25 µM	> 25 µM	> 25 µM	> 25 µM	> 25 µM	> 25 µM	> 25 µM	> 25 µM	> 25 µM	> 25 µM	> 25 µM	> 25 µM	> 25 µM	> 5.79 µM	> 25 µM
NC(=NC1C2CC3CC(C2)CC1C3)Nc1ccc(I)cc1 (stereo not drawn)	3.43 µM	14.3 µM	4.65 µM	25.2 µM	3.29 µM	15.7 µM	–	–	2.22 µM	8.79 µM	3.66 µM	13 µM	3.97 µM	15 µM	1.57 µM	2.95 µM	2.09 µM	15.7 µM	2.67 µM	12.8 µM
CCOc1ccc(N2C(N)=NC(N)=NC2(C)C)cc1	–	–	> 100 µM	> 100 µM	36 µM	> 100 µM	74 µM	> 100 µM	65.6 µM	> 100 µM	39.8 µM	> 100 µM	> 100 µM	> 100 µM	40.8 µM	> 100 µM	60.5 µM	> 100 µM	> 100 µM	> 100 µM
Cc1cc(I)cc(CN(C)CCCCN2CCCC2)c1O	34.8 µM	> 100 µM	11.5 µM	32.8 µM	11.3 µM	24.2 µM	19.8 µM	53.9 µM	15.5 µM	33.4 µM	17.3 µM	45.9 µM	33.5 µM	> 100 µM	12.7 µM	25.2 µM	16.5 µM	36.9 µM	28.2 µM	> 100 µM
CCn1cc(C2NC(=O)c3cc(F)ccc3N2)c2cccc(Cl)c21 (stereo not drawn)	0.461 µM	> 100 µM	0.197 µM	> 23.1 µM	0.0414 µM	> 100 µM	0.277 µM	> 100 µM	0.293 µM	> 47.8 µM	0.32 µM	> 100 µM	0.1 µM	0.596 µM	0.446 µM	> 100 µM	0.123 µM	11.9 µM	2.88 µM	> 100 µM
O=C(O)c1c(Cl)c(Cl)c(Cl)c(Cl)c1-c1c2cc(I)c(=O)c(I)c-2oc2c(I)c(O)c(I)cc12	63.5 µM	> 200 µM	35.7 µM and 33 µM	83.7 µM	39.2 µM and 46 µM	116 µM	53.6 µM	182 µM	40.8 µM	86.2 µM	58.8 µM	> 200 µM	32.1 µM and 33 µM	72.1 µM	36.3 µM	68.9 µM	32.1 µM and 34 µM	79.8 µM	43.5 µM	107 µM
COc1cc(C(=O)c2c(-c3ccccc3)oc3ccccc23)cc(OC)c1O	3.85 µM	58.2 µM	0.898 µM	8.47 µM	0.4 µM	44.5 µM	3.99 µM	16.5 µM	2.69 µM	22.2 µM	2.22 µM	10.7 µM	1.11 µM	5.21 µM	2.57 µM	12.6 µM	0.231 µM	2.22 µM	3.14 µM	19.4 µM
Nc1ccccc1C#Cc1ccccc1C#CCCCCO	29.1 µM	96.7 µM	35.8 µM	> 100 µM	19.1 µM	58.3 µM	16.9 µM	48.4 µM	22.7 µM	68.1 µM	30.5 µM	> 100 µM	25.7 µM	63.4 µM	31.5 µM	94.3 µM	11.3 µM	33.6 µM	20.3 µM	54.8 µM
C[C@H]1CC(=O)[C@@]2(O)C#C/C=C\C#C[C@@H]3Nc4c(cc(O)c5c4C(=O)c4ccccc4C5=O)[C@]24O[C@]314	0.292 µM	0.885 µM and 1.4 µM	0.292 µM	8.35 µM and 1.35 µM	–	0.233 µM and 0.605 µM	0.128 µM	0.226 µM and 0.48 µM	0.0025 µM	0.00278 µM	0.0025 µM	–	–	> 25 µM	–	0.123 µM and 0.0412 µM	0.0062 µM	0.0804 µM and 0.0719 µM	–	–
COCCOC(=O)CCn1cc(F)c(=O)[nH]c1=O	57.8 µg/mL	> 150 µg/mL	> 150 µg/mL	> 150 µg/mL	21.3 µg/mL	> 150 µg/mL	5.93 µg/mL	> 150 µg/mL	19.7 µg/mL	> 150 µg/mL	0.821 µg/mL	> 150 µg/mL	5.79 µg/mL	> 150 µg/mL	20.4 µg/mL	> 150 µg/mL	88.4 µg/mL	> 150 µg/mL	1.82 µg/mL	> 150 µg/mL

— PubChem BioAssay (NCI)
